Measurements as given in US20040092498A1, “Substituted glycine derivatives for use as medicaments” (priority 2002, published 2004).

Each compound was assayed on α2δ subunit (assay: radioligand binding assay using [3H]gabapentin and the α2δ subunit). Details: [3H]gabapentin radioligand; α2δ subunit derived from porcine brain tissue.
Excerpt: The biological activity of the compounds of the invention may be measured in a radioligand binding assay using [^3H]gabapentin and the α2δ subunit derived from porcine brain tissue (Gee N. S., Brown J. P., Dissanayake V. U. K., Offord J., Thurlow R., Woodruff G. N., J. Biol. Chem., 1996;271:[…]). Results may be expressed in terms of μM or nM α2δ binding affinity.

Q: Which “Activity (binding affinity)” value does the source give for `O=C(O)CNCCSc1ccc(Cl)cc1` [Example 6, ({2-[(4-Chlorophenyl)sulfanyl]ethyl}amino)acetic acid] here?
A: 198 nM

Q: `NCc1ccc(SCCNCC(=O)O)cc1` [Example 8, [(2-{[4-(Aminomethyl)phenyl]sulfanyl}ethyl)amino]acetic acid] was tested. Which “Activity (binding affinity)” value did it give?
A: 987 nM

Q: Which “Activity (binding affinity)” value does the source give for `O=C(O)CNCCOc1ccc(Cl)cc1Cl` [Example 9, {[2-(2,4-Dichlorophenoxy)ethyl]amino}acetic acid] here?
A: 1665 nM

Q: For `O=C(O)CNCCSCc1ccc(Cl)cc1` [Example 10, ({2-[(4-Chlorobenzyl)sulfanyl]ethyl}amino)acetic acid], which “Activity (binding affinity)” value is on record?
A: 507 nM

Q: Which “Activity (binding affinity)” value does the source give for `O=C(O)CNCCSc1ccc2ccncc2c1` [Example 11, {[2-(7-Isoquinolinylsulfanyl)ethyl]amino}acetic acid] here?
A: 71 nM

Q: `CCOC(=O)CNCCSc1ccc(Cl)cc1` [Example 12, Ethyl ({2-[(4-chlorophenyl)sulfanyl]ethyl}amino)acetate] was tested. Which “Activity (binding affinity)” value did it give?
A: 5406 nM
